According to patent US20230165965A1, “NEW COUMARIN-POLYMER CONJUGATES AND USES THEREOF” (Onyel Biotech S.r.l., priority 2020, published 2023):
Like-named read-outs stand apart in the source and are kept apart here.

Columns and labels:
[1] = Single-photon absorption spectra analysis of coumarin derivatives; type: physicochemical
Procedure: Table 1, below, reports the absorbance spectra analysis of selected coumarin derivatives dissolved in PBS at pH 7.4, the maximum single photon absorption wavelengths in specific solvents are indicated.
Selected coumarin derivatives were dissolved in DMSO at a concentration of 5 mg/ml and diluted 1:500 in PBS, pH 7.4. The absorption spectra were recorded on an Evolution 201 UV-Vis spectrophotometer (Thermo Fisher Scientific, Waltham, Mass., USA) in the wavelength range of 250-450 nm.

[2] = Atomic force measurement (AFM) of hydrogel Young's modulus; type: physicochemical; settings: 1-photon UV mediated cycloaddition
Procedure: With the aim to provide glass surface HCCA-groups for covalent bonding HCC-branched polymers solutions were drop-cast onto glass coverslip previously functionalized with HCCA- as described in Section 10. HCC-4arm PEG and HCC-8arm PEG were dissolved in PBS (300 mg/mL) at room temperature under agitation. HCC-Gel was dissolved in PBS (100 mg/mL) under agitation at 60° C. for 10 min. When coverslips were used, a second coverslip was placed on top of the drop of HCC-polymeric solutions to limit water evaporation during the irradiation process. […] Laser power is measured before objective back aperture, corresponding to about 1% of the power on the sample plane. […]
For crosslinking reaction analysis, 5 μL CMMC-4 arm PEG (300 mg/mL) or CMMC-Gel (100 mg/mL) solution was located in a humid chamber at 3 cm from a 365 nm UV LED Gen 2 Emitter LZ4-04UV00 (Led Engin) and irradiated for different minutes as reported. When CMMC-Gel solution was analysed at different concentrations (100 mg/mL, 120 mg/mL, 140 mg/mL, 160 mg/mL, 180 mg/mL and 200 mg/mL), 5 μL of solution was located in a humid chamber at 3 cm from a 365 nm UV LED Gen 2 Emitter LZ4-04UV00 (Led Engin) and irradiated for 3 minutes. […]
The Young's modulus was calculated applying a fit of the Hertz model to the force curve, assuming a Poisson ratio of 0.5. […]

[3] = system: Murine muscle-derived stem cells (MuSC)
Procedure: Cells were expanded for 1 passage at 37° C. in cell incubator, using proliferating medium composed by DMEM supplemented with 20% horse serum, 10% fetal bovine serum (Gibco), 1% chicken embryo extract (Sera Laboratories International), bFGF ([…], Invitrogen #PHG0264) and 1% Pen/Strep (Thermofisher). […] Samples were cultured in proliferating media and analyzed 2 days after 3D bioprinting (cell directionality was quantified as reported above). […] After 5 days of culture in proliferating medium, differentiation medium (DMEM supplemented with 2% horse serum and 1% Pen/Strep) was used for the following 5 days of cell culture. After 10 days, samples were fixed in 4% (w/v) paraformaldehyde (PFA, Sigma-Aldrich) in PBS for 7 min at room temperature and maintained at 4° C. in PBS until use.
(§1) ImageJ software were used for adjustments of levels and contrast, maximum and standard deviation intensity projections, 3D reconstructions and thresholding to create binary mask used for directionality and ferret angle measurements. To quantify the directionality of i3D bioprinted cells, at least 9 fluorescence images of independent biological triplicates for each sample were converted in binary masks, then analyzed with directionality plugin of ImageJ software (that indicates the amount of structures in a given direction). To quantify the shape of enclosed hSIOs, at least 9 fluorescence images of independent biological triplicates for each sample were converted in binary masks, then analyzed with measure plugin of ImageJ software to quantify the Feret's angle (the angle between the longest distance of the axis of any two points along the selection boundary (Feret's diameter) and a line parallel to the x-axis of the image).

[4] = system: human small intestinal organoids (hSIOs); type: cell-based; settings: open square-box hydrogel, up to 8 days of culture
From the text: as §1

mCherry+FBs = settings: for organization of donor mCherry+FBs: under epimysium, 21 days
Procedure: (§2) Mice were anaesthetized using i.p. injection of Zoletil® 50/50 (40 mg/kg) and Rompun® 2% Xilazina (5 mg/kg) in physiologic solution. Induction of deep surgical anaesthesia was confirmed by absence of reaction to hind foot pinch. The surgical procedure underwent in aseptic conditions (skin preparation, sterilized instruments, gloves and drapes). […] For blood flow analysis, Rhodamine B isothiocyanate-Dextran (Sigma, R9379) was injected in tail vein at 50 mg/mL in physiologic solution. When required, skin wound was closed with Vicryl 6-0 suture and no movement or space restriction were applied to animals after treatments. At the required time point, animals were deeply anesthetized, subjected to stereomicroscope and/or 2P intravital imaging, then sacrificed for tissues collection.

skeletal muscle = settings: GFP+MuSC/mCherry+FB-laden, i3D bioprinted
Procedure: as §2
ImageJ software were used for adjustments of levels and contrast, maximum and standard deviation intensity projections, 3D reconstructions and thresholding to create binary mask used for directionality and ferret angle measurements. To quantify the directionality of i3D bioprinted cells, at least 9 fluorescence images of independent biological triplicates for each sample were converted in binary masks, then analyzed with directionality plugin of ImageJ software (that indicates the amount of structures in a given direction). […]

HUVEC cells = settings: seeded on hydrogels
Procedure: HUVEC were transduced with a lentiviral vector encoding for eGFP (3) and cultured in Endothelial Growth Media (EGM, Lonza). […] After culture, cells were fixed in 4% (w/v) paraformaldehyde (PFA, Sigma-Aldrich) in PBS for 7 min at room temperature and maintained at 4° C. in PBS until use. […] After culture, cells were fixed in 4% (w/v) paraformaldehyde (PFA, Sigma-Aldrich) in PBS for 7 min at room temperature and maintained at 4° C. in PBS until use.

Fibroblasts (FBs) = settings: ΔZ up to 150 μm, interspace down to 10 μm
Procedure: For 3D cell laden culture, 10^4 cells were seeded into Matrigel, or Matrigel or CMMC-Gel exposed to UV light for 3 minutes at an irradiation distance of 3 millimeters, located in a 24 multiwell culture dish, cultured for 2 days at 37° C. and 5% CO2 in cell incubator before performing cell viability assay as described above. […] 2P-cell laden constructs were analyzed by imaging or AFM as described above.

## Cc1cc(=O)oc2cc(O)ccc12 [7-Hydroxy-4-methylcoumarin]
[1]; Solvent: 95% Ethanol
  Abs λ: 322 nm

## O=C(ON1C(=O)CCC1=O)c1cc2ccc(O)cc2oc1=O [7-Hydroxycoumarin-3-carboxylic acid N-succinimidyl ester]
[1]; solvent not given
  Abs λ: 413 nm

## 7-(carboxymethoxy)-4-methylcoumarin-gelatin [CMMC-Gel]
[2]
  elastic modulus with increasing irradiation time: increases to asymptotic values

## CCOC(=O)c1cc2ccc(O)cc2oc1=O [Ethyl 7-Hydroxycoumarin-3-carboxylate]
[1]; Solvent: Ethanol
  Abs λ: 403 nm

## Cc1c(CC(=O)O)c(=O)oc2cc(N)ccc12 [7-Amino-4-methyl-3-coumarinylacetic acid]
[1]; Solvent: Methanol
  Abs λ: 340 nm

## Cc1cc(=O)oc2cc(OCC(=O)O)ccc12 [7-Carboxymethoxy-4-methylcoumarin]
[1]; Solvent: Ethanol
  Abs λ: 321 nm

## 7-hydroxycoumarin-3-carboxamide-gelatin [HCC-Gel]
[3]; cuboid-shaped structures
  cell directionality of MuSC: randomly oriented
[3]; elongated-shaped structures
  cell directionality of MuSC: oriented along major axis of the 3D structures
[3]; parallelepiped-shaped structures, 10 days of culture
  myotube formation: support the formation of aligned multinucleated myotubes
[4]
  columnar epithelium of enclosed hSIOs: well-developed columnar epithelium
mCherry+FBs; intra-dermal injection and i3D bioprinting across epidermis, 14 days
  localization of donor mCherry+FBs: Elongated localization
mCherry+FBs; i3D bioprinted parallelepiped-shaped constructs
  organization of donor mCherry+FBs: elongated clusters
mCherry+FBs; injected only (no i3D bioprinting)
  organization of donor mCherry+FBs: rounded clusters
Skeletal muscle; 7 days
  de novo skeletal muscle tissue formation: supports de novo skeletal muscle tissue formation
Skeletal muscle; one week
  organization of donor GFP cells: confined bundle of elongated GFP cells
HUVEC cells
  adhesion and culture of HUVEC cells: supported adhesion and culture
Fibroblasts (FBs)
  adhesion of GFP FBs to parallelepiped-shaped hydrogels: efficiently adhere

## O=c1ccc2ccc(O)cc2o1 [7-Hydroxycoumarin]
[1]; Solvent: 95% Ethanol
  Abs λ: 325 nm

## O=c1cc(C(F)(F)F)c2ccc(O)cc2o1 [7-Hydroxy-4-(trifluoromethyl)coumarin]
[1]; Solvent: Ethanol
  Abs λ: 383 nm
